Laboratory results taken from patent US8318781B2, “G-protein-conjugated receptor agonist” (Japan Science and Technology Agency, priority 2007, dated 2012).
Where two headings read alike, the source gives them in different places.

What was measured:
Format in all cases: cell-based
[1] = biological target: T1, human GPR40 (hGPR40) (Homo sapiens, UniProt O14842); assay: ERK assay, screening for GPR40 ligands in cell line TXGPR40; details: TXGPR40 cells; for ERK activation for GPR40 (in words): FIGS. 1-4; for ERK/GPR40 10 μM: ligand 10 μM; for ERK/GPR40 10 μM / ERK/GPR40 100 μM: class relative to LA; for ERK/GPR40 100 μM: ligand 100 μM
T1 construct: expressed in transfected cells; doxycycline-inducible expression vector
T1 sequence (O14842 whole entry): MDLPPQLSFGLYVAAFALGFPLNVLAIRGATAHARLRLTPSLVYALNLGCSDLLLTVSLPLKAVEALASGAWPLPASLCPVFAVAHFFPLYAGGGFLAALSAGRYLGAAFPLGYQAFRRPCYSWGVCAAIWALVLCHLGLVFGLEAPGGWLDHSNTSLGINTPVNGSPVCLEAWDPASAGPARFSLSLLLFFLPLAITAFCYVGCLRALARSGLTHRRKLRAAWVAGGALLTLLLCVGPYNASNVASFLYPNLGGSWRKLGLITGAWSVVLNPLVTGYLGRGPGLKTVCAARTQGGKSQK
Method: (§1) This Test 1 was carried out by using the following materials and methods.
(§2) (1) In this test, the cell lines TXGPR40 and TXGPR120 were plated in 35-mm dishes in 5×10^5 cells/per dish.
(§3) Each ligand was dissolved in DMSO, diluted tenfold with the medium to make the total amount of 100 μl. DMSO was used as the negative control, and PMA (phorbol-12-myristate-13-acetate) was used as the positive control.
(§4) (3) The medium was removed from the dish of the cell to reduce the total amount of liquid to 0.9 ml.
(§5) (4) The ligand solution was added dropwise to the cell solution, and dispersed by gently shaking the dish, and allowed to react at room temperature.
(§6) (5) After 5 minutes of reaction, the medium was discarded, and the remaining medium on the dish was removed on ice using an aspirator.
(§7) (6) 150 μl of Lysis buffer (50 mM HEPES (pH 7.0), 150 mM NaCl, 10% glycerol, 1% NonidetP-40, 2 mM MgCl2, 1 mM EDTA, 100 mM NaF, 10 mM sodium phosphate, 1 mM Na3VO4, 20 mM β-glycerophosphate, and Proteinase inhibitor) were added, then the cells were collected using a cell scraper.
(§8) (1) The crude enzyme solution mixed with SDS Sample Buffer was subjected to ultrasonication with a sonifier, then incubated at 90° C. for five minutes.
(§9) (2) The mixture was vortexed and centrifuged at 15,000 rpm for five minutes at 4° C.
(§10) (3) The supernatant of the centrifuged sample was applied to two 7.5% acrylamide gel slabs placed in an electrophoresis tank filled with 1×SDS-PAGE Running Buffer (25 mM Tris, 0.2 M Glycin, and 1% SDS). Electrophoresis was carried out under a constant current of 40 mA for about 80 to 90 minutes.
(§11) (1) A PVDF membrane cut in the same size as the gel slab was immersed in methanol for about 15 seconds and then shaken in Transfer Buffer C solution (25 mM Tris, 0.02% SDS, 2% methanol and 40 mM 6-aminohexanoic acid) at room temperature to swell for 15 minutes. Filter paper for blotting was cut into a 10-cm square.
(§12) (2) On the blotting apparatus were placed sequentially two pieces of filter paper immersed in A solution (0.3 M Tris, 0.02% SDS and 2% methanol), two pieces of filter paper immersed in B solution (25 mM Tris, 0.02% SDS and 2% methanol), and the membrane thereon. The gel slab after electrophoresis, and finally two pieces of filter paper immersed in C solution was placed thereon, and the apparatus was closed.
(§13) (3) The protein was transferred to the membrane at 15 V for 30 minutes.
(§14) (1) The following procedure was all carried out at room temperature. After the protein transfer, the membrane was placed into a vial containing 1×TTBS (0.2 M Tris, 1.5 M NaCl, 0.2% Tween 20) and washed for 15 minutes.
(§15) (2) TTBS was discarded, and about 10 ml of Block Ace was added and blocked on a shaker for one hour.
(§16) (1) The primary antibodies (p44/42 MAP Kinase Antibody and Phospho-p44/42 MAP Kinase Antibody) were each diluted 1000-fold with TTBS.
(§17) (2) After blocking, the Block Ace solution was removed, the solution of the primary antibody was added and allowed to react on the shaker for two hours.
(§18) (1) The secondary antibody (Anti-rabbit Ig, Horseradish Peroxidase linked F(ab′)2 fragments) was diluted 5000-fold with TTBS.
(§19) (2) The primary antibody solution was removed and the membrane was washed three times on the shaker in TTBS for five to ten minutes each.
(§20) (3) TTBS was removed and the solution of secondary antibody was added and left for 1 hour on the shaker.
(§21) (1) 2 ml each of Detection Reagent 1 and Detection Reagent 2 from ECL kit were mixed together on ice.
(§22) (2) The solution of secondary antibody was removed from the membrane reacted with the secondary antibody and then washed three times on the shaker in TTBS for five minutes each.
(§23) (3) The liquid was thoroughly removed from the membrane, which was then placed in a plastic bag, and 2 ml of the Detection Reagent mixture was added per each membrane.
(§24) (4) The membrane was kept in contact with a film in the cassette for one to five minutes, and the film was developed using an automatic developing machine.

[2] = biological target: T2, human GPR120 (hGPR120) (Homo sapiens, UniProt Q5NUL3); assay: Determination of intracellular Ca2+ concentration (FLIPR), cell line GPR120/Flp-in; details: for [Ca^2+]/GPR120/Flp-In 10 μM (ratio vs. LA): relative fluorescence intensity vs LA at 10 μM
T2 construct: expressed in transfected cells; doxycycline-inducible expression vector
T2 sequence (Q5NUL3 1-361): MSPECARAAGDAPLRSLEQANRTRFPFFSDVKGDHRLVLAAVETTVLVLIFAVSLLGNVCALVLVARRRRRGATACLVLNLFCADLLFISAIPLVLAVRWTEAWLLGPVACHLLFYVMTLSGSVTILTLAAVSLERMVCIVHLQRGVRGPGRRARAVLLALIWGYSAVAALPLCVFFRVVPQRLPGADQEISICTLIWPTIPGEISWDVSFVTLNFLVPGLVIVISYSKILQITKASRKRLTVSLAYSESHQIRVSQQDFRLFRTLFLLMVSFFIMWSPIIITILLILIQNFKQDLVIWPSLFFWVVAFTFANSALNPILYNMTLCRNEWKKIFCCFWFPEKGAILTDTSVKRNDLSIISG
Method: (§25) (1) In this test, The cell lines TXGPR40, TXGPR120 and GPR120/Flp-in were plated onto a collagen-coated black 96-well plate in 2×10^5 cells/well. The 96-well plates containing the cells were centrifuged and treated with Doxycycline (final concentration 10 μg/mL), incubated in a CO2 incubator for 21 hours, then used for assay.
(§26) (2) The ligand used in this test includes NCP04, NCP14, NCG20, NCG21, NCG22, NCG23, NCP02, NCP03, NCP05, NCP06, NCG14, NCG17, NCG19, NCG28, NCG29, NCG30, NCG31, NCG34, NCG35, NCG37, NCG38, NCG44, NCG45, NCG46, and NCG54. Each ligand was dissolved in DMSO and adjusted to the concentration of 10 mM, then diluted with Hanks' Balanced Salt Solution (pH 7.4) containing 20 mM HEPES (referred to as FLIPR buffer hereinafter) to the final concentration of 1 to 100 μM. 1% DMSO was used as the negative control, and LA was used as the positive control.
(§27) The ligands and controls were placed in different 96-well plates from the plates for the cells.
(§28) (3) The 96-well plate containing the cells was removed from the CO2 incubator. A fluorescent dye prepared in a twofold higher concentration (Ca Assay Kit Component A diluted with FLIPR Buffer) was added in 50 μL/well, then allowed to stand in the dark at room temperature for one hour.
(§29) (4) After one hour, the 96-well plate containing the cells and the 96-well plate in which ligands and controls were prepared were set on FLIPR (Fluorometric Imaging Plate Reader) for determination.
(§30) (5) Fluorometry using FLIPR was carried out at a laser output of 1.0 W for five minutes. […] after the start of the determination, the ligand (25 μL) was added dropwise to the cell plate at a rate of 50 μL/sec. The intensity of fluorescence was automatically digitized by the application program installed in the FLIPR from the image taken by the CCD camera (with exposure time of 0.40 sec). The interval of data sampling was one second for the initial one minute after the start of operation, and six seconds for the subsequent four minutes.
(§31) (6) The maximum fluorescence intensity was obtained from the data showing the change in the fluorescence intensity over time observed in each well. The maximum fluorescence intensity was plotted against ligand concentration, and pEC50 was calculated. The ratio of the fluorescence intensity for each ligand to LA at 10 μM was calculated as the relative intensity of each ligand.

[3] = biological target: T2, human GPR120 (hGPR120); assay: Determination of intracellular Ca2+ concentration (FLIPR), cell line TXGPR120; details: for agonistic activity for hGPR120 (in words): cells in which GPR120 has been transgenically expressed; for [Ca^2+]/GPR120 10 μM (ratio vs. LA): relative fluorescence intensity vs LA at 10 μM
Method: as §25, §26, §27, §28, §29, §30, §31

[4] = biological target: T2, human GPR120 (hGPR120); assay: ERK assay, screening for GPR120 ligands in cell line TXGPR120;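 on ERK/GPR120 10 μM: signals normalized between DMSO and PMA controls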; details: TXGPR120 cells; for ERK activation for GPR120 (in words): FIGS. 5-8; for ERK/GPR120 10 μM: ligand 10 μM; for ERK/GPR120 10 μM / ERK/GPR120 100 μM: class relative to LA; for ERK/GPR120 100 μM: ligand 100 μM
Method: as §1, §2, §3, §4, §5, §6, §7, §8, §9, §10, §11, §12, §13, §14, §15, §16, §17, §18, §19, §20, §21, §22, §23, §24

[5] = biological target: T1, human GPR40 (hGPR40); assay: Determination of intracellular Ca2+ concentration (FLIPR), cell line TXGPR40; details: for agonistic activity for GPR40 (in words): cells in which GPR40 has been transgenically expressed; for [Ca^2+]/GPR40 10 μM (ratio vs. LA): relative fluorescence intensity vs LA at 10 μM
Method: as §25, §26, §27, §28, §29, §30, §31

[6] = GPR120/Flp-in cells, maximum fluorescence intensity vs ligand concentration, read-out: [Ca^2+]/GPR120/Flp-In pEC50 (converted)
[7] = TXGPR40 cells, maximum fluorescence intensity vs ligand concentration, read-out: [Ca^2+]/GPR40 pEC50 (converted)

| SMILES | ERK activation for GPR40 (in words) [1] | ERK/GPR40 10 μM [1] | ERK/GPR40 100 μM [1] | EC50 [2] [µM] | [Ca^2+]/GPR120/Flp-In 10 μM (ratio vs. LA) ([2]; GPR120/Flp-in cells) | EC50 [3] [µM] | agonistic activity for hGPR120 (in words) [3] | [Ca^2+]/GPR120 10 μM (ratio vs. LA) ([3]; TXGPR120 cells) | ERK activation for GPR120 (in words) [4] | ERK/GPR120 10 μM [4] | ERK/GPR120 100 μM [4] | EC50 [5] [µM] | agonistic activity for GPR40 (in words) [5] | [Ca^2+]/GPR40 10 μM (ratio vs. LA) ([5]; TXGPR40 cells) | EC50 [2, 6] [µM] | EC50 [5, 7] [µM] | EC50 ([3]; TXGPR120 cells, maximum fluorescence intensity vs ligand concentration, read-out: [Ca^2+]/GPR120 pEC50 (converted)) [µM] |
| --- | --- | --- | --- | --- | --- | --- | --- | --- | --- | --- | --- | --- | --- | --- | --- | --- | --- |
| O=C(O)CCCc1ccc(OCCN(c2ccccc2)c2cc(Cl)ccn2)cc1 [NCG35] | strongly activated ERK | +++ (+++ denotes a higher value than LA) | +++ (+++ denotes a higher value than LA) | 4.57 | 1.00 | 16.2 | exhibit a similar effect | 0.61 | strongly activate ERK | +++ (+++ denotes a higher value than LA) | +++ (+++ denotes a higher value than LA) | 7.76 | showed a specific reactivity | 0.68 | – | – | – |
| CCCCCN(CCOc1ccc(CCC(=O)O)cc1)c1ccccn1 [NCP05] | – | +++ (+++ denotes a higher value than LA) | +++ (+++ denotes a higher value than LA) | – | 0.45 | – | exhibit a similar effect | 0.00 | – | + (+ denotes 0 to 100% of LA) | +++ (+++ denotes a higher value than LA) | – | showed a specific reactivity | 1.22 | 11.5 | 5.62 | – |
| CCN(CCOc1ccc(CCC(=O)O)cc1)c1ccccn1 [NCP02] | – | + (+ denotes 0 to 100% of LA) | +++ (+++ denotes a higher value than LA) | – | 0.45 | – | exhibit a similar effect | 0.00 | – | + (+ denotes 0 to 100% of LA) | + (+ denotes 0 to 100% of LA) | – | showed a specific reactivity | 1.47 | 15.5 | 3.39 | – |
| Cc1cccc(N(CCOc2ccc(CCCC(=O)O)cc2)c2ccccc2)n1 [NCG38] | strongly activated ERK | ++ (++ denotes 50 to 100% of LA) | +++ (+++ denotes a higher value than LA) | 6.76 | 0.81 | 22.4 | exhibit a similar effect | 0.56 | strongly activate ERK | +++ (+++ denotes a higher value than LA) | +++ (+++ denotes a higher value than LA) | 13.5 | showed a specific reactivity | 0.34 | – | – | – |
| O=C(O)CCCc1ccc(OCCN(c2ccccc2)c2ncccn2)cc1 [NCG44] | – | – | + (+ denotes 0 to 100% of LA) | – | 0.85 | – | exhibit a similar effect | 0.49 | – | + (+ denotes 0 to 100% of LA) | ++ (++ denotes 50 to 100% of LA) | – | – | 0.01 | 3.55 | – | 22.9 |
| O=C(O)CCc1ccc(OCCN(c2ccccc2)c2ccccn2)cc1 [NCP14] | – | ++ (++ denotes 50 to 100% of LA) | ++ (++ denotes 50 to 100% of LA) | – | 0.56 | – | exhibit a similar effect | 0.00 | – | – | ++ (++ denotes 50 to 100% of LA) | – | showed a specific reactivity | 0.98 | 15.5 | 9.77 | – |
| CCCN(CCOc1ccc(CCC(=O)O)cc1)c1ccccn1 [NCP03] | – | ++ (++ denotes 50 to 100% of LA) | +++ (+++ denotes a higher value than LA) | – | 0.57 | – | exhibit a similar effect | 0.00 | – | + (+ denotes 0 to 100% of LA) | ++ (++ denotes 50 to 100% of LA) | – | showed a specific reactivity | 1.25 | 17.8 | 5.25 | – |
